Each block holds one compound with its values, some of them ahead of it.
Target: T1, human SCD1 (Homo sapiens, UniProt O00767)
T1 construct: made in house; host or cells: High Five insect cells (baculovirus, pFastBac1/hSCD1); membrane fraction
T1 sequence (O00767 1-359): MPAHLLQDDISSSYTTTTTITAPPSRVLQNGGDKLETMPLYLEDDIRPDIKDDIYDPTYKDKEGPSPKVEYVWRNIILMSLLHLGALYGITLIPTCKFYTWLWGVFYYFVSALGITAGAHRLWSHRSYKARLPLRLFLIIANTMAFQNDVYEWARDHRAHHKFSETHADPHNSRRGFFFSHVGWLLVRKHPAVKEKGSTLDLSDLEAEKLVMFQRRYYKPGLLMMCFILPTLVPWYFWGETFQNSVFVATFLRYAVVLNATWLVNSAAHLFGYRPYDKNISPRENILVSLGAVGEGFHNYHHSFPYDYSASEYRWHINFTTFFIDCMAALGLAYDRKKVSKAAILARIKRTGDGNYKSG
Assay: Measurement of human SCD1 binding activity (inhibition of binding of radiolabeled compound Z)
Details: human SCD1-expressing membrane fraction, compound Z radioligand; for inhibition at 1 µM: 1 μM compound, read-out: Rate of inhibition of SCD1 binding (%) at compound concentration of 1 μM
Method: Measurement of Human SCD1 Binding Activity Using (5-(6-(1′H-spiro[1-benzofuran-3,3′-pyrrolidin]-1′-yl)pyridazin-3-yl)-1,2,4-oxadiazol-3-yl) [^3H2]methanol
The SCD1 binding activity of the compound of the present invention was measured as the activity of inhibiting the binding of (5-(6-(1′H-spiro[1-benzofuran-3,3′-pyrrolidin]-1′-yl)pyridazin-3-yl)-1,2,4-oxadiazol-3-yl)[^3H2]methanol (radiolabeled form of the compound disclosed as a SCD inhibitor in Example 157 of International Publication No. WO2008/096746; in the present specification, also referred to as compound Z) to SCD1.
Specifically, first, Human liver cDNA library (Takara Bio Inc.) was cloned as a template by PCR using KOD-Plus-(Toyobo Co., Ltd.) DNA polymerase. The primers used were 5′-[…]-3′ and 5′-[…]-3′. The amplification fragment was temporarily transferred to a pCR Blunt II-TOPO vector using Zero Blunt PCR Cloning Kit (Life Technologies, Inc.) to obtain pCR Blunt II-TOPO/hSCD1. A fragment obtained by the cleavage of this pCR Blunt II-TOPO/hSCD1 with BamHI and NotI was transferred to pFastBac1 (Life Technologies, Inc.) to construct a recombinant plasmid pFastBac1/hSCD1 for hSCD1 insect cell expression systems.
Baculovirus was prepared using the pFastBac1/hSCD1 plasmid according to the protocol of Bac-to-Bac Baculovirus Expression System (Life Technologies, Inc.).
The insect cells for use in expression were High Five cells (Life Technologies, Inc.) subcultured in a PSFM-J1 medium (Wako Pure Chemical Industries, Ltd.) containing 5% FBS, 10 U/L heparin (Sigma-Aldrich Corp.) and 50 μg/mL gentamicin.
The High Five cells were inoculated at 0.8×10^6 cells/mL and cultured until the following day. When the cell density reached 2.0×10^6 cells/mL, Ammonium Iron(III) Sulfate 12-Water (Wako Pure Chemical Industries, Ltd.) was added thereto at a final concentration of 10 μM. The cells were further infected with the baculovirus and cultured for 3 days.
After the completion of the culture, the culture solution was centrifuged (4° C., 4,000 rpm, […]) and frozen at −80° C. to obtain hSCD1-expressing insect cells. Next, the frozen hSCD1-expressing insect cells were suspended in buffer A (50 mM Tris-HCl (pH 7.5) containing 250 mM sucrose and cOmplete Protease Inhibitor Cocktail Tablets (F. Hoffmann-La Roche, Ltd.)), and the cells were disrupted (4° C., 20,000 rpm, 20 sec×2) using a POLYTORON homogenizer (Central Scientific Commerce, Inc.).
This cell lysate was centrifuged (4° C., 850×g, […]), and the supernatant was further ultracentrifuged (4° C., 186,000×g, 60 min). The supernatant was discarded, and buffer A was added to the precipitate. The resultant was suspended using POLYTRON (4° C., 10,000 rpm, 10 sec×2) and passed through a 40-μm cell strainer to prepare a human SCD1-expressing membrane fraction (hereinafter, also simply referred to as human SCD1). The protein concentration was measured using BCA Protein Assay Kit (Thermo Fisher Scientific, Inc.) with BSA used as standards.
The obtained primary dilution was diluted 250-fold by the addition of an assay buffer (10 mM Tris-HCl, pH 7.5, 100 mM KCl, 10 mM NaF, 3 mM MgCl2, 0.005% Tween 20, 1 mM GSH) to obtain a secondary dilution. The human SCD1 diluted using an assay buffer was dispensed at 100 μL/well (containing 0.2 μg of the protein) to a polypropylene 96-well plate, and then, the secondary dilution of the compound was added thereto at 50 μL/well. Further, a solution of 12 nM compound Z diluted with an assay buffer was added thereto at 50 μL/well, and the plate was left standing at room temperature for 2 hours. Then, the contents in each well were transferred to each well of UniFilter-96 GF/C PEI coated plate (PerkinElmer, Inc.) wetted with a washing buffer, followed by washing five times with a washing buffer (10 mM Tris-HCl, pH 7.5). After drying of the filter plate, Microscint-O (PerkinElmer, Inc.) was added thereto at 25 μL/well, and the obtained radioactivity was measured using TopCount (PerkinElmer, Inc.). […]

Compound: OCc1nsc(-c2ccc(N3CCC(c4ccc(C(F)(F)F)cc4)(C(F)(F)F)CC3)nn2)n1 [Example 112, (5-(6-(4-(Trifluoromethyl)-4-(4-(trifluoromethyl)phenyl)piperidin-1-yl)pyridazin-3-yl)-1,2,4-thiadiazol-3-yl)methanol]
inhibition at 1 µM: 99%

Compound: OCc1nnc(-c2ccc(N3CCC(c4ccc(C(F)(F)F)cc4)(C(F)(F)F)CC3)nn2)o1 [Example 84, (5-(6-(4-(Trifluoromethyl)-4-(4-(trifluoromethyl)phenyl)piperidin-1-yl)pyridazin-3-yl)-1,3,4-oxadiazol-2-yl)methanol]
inhibition at 1 µM: 99%

Compound: OCc1noc(-c2ccc(N3CCC(c4ccc(C(F)(F)F)cc4)(C(F)(F)F)CC3)nn2)n1 [Example 82, (5-(6-(4-(Trifluoromethyl)-4-(4-(trifluoromethyl)phenyl)piperidin-1-yl)pyridazin-3-yl)-1,2,4-oxadiazol-3-yl)methanol]
inhibition at 1 µM: 99%

Compound: N#CC1(c2ccc(S(F)(F)(F)(F)F)cc2)CCN(c2ccc(-c3nc(CO)ns3)nn2)CC1 [Example 108, 1-(6-(3-(Hydroxymethyl)-1,2,4-thiadiazol-5-yl)pyridazin-3-yl)-4-(4-(pentafluorosulfanyl)phenyl)piperidine-4-carbonitrile]
inhibition at 1 µM: 99%

Compound: OCc1nnc(-c2ccc(N3CCC(c4ccc(C(F)(F)F)cc4)(C(F)(F)F)CC3)nn2)s1 [Example 113, (5-(6-(4-(Trifluoromethyl)-4-(4-(trifluoromethyl)phenyl)piperidin-1-yl)pyridazin-3-yl)-1,3,4-thiadiazol-2-yl)methanol]
inhibition at 1 µM: 100%

More lines, now with the values ahead:

inhibition at 1 µM: 89%
Compound: N#CC1(c2ccc(S(F)(F)(F)(F)F)cc2)CCN(c2ccc(-c3nnc(CO)o3)nn2)CC1 [Example 58, 1-(6-(5-(Hydroxymethyl)-1,3,4-oxadiazol-2-yl)pyridazin-3-yl)-4-(4-(pentafluorosulfanyl)phenyl)piperidine-4-carbonitrile]

inhibition at 1 µM: 100%
Compound: COC1(c2ccc(S(F)(F)(F)(F)F)cc2)CCN(c2ccc(-c3nc(CO)ns3)nn2)CC1 [Example 110, (5-(6-(4-Methoxy-4-(4-(pentafluorosulfanyl)phenyl)piperidin-1-yl)pyridazin-3-yl)-1,2,4-thiadiazol-3-yl)methanol]

inhibition at 0.1 µM (0.1 μM compound, read-out: Rate of inhibition of SCD1 binding at compound concentration of 0.1 μM): 93%
Compound: COC1(c2ccc(S(F)(F)(F)(F)F)cc2)CCN(c2ccc(-c3nnc(CO)s3)nn2)CC1 [Example 111, (5-(6-(4-Methoxy-4-(4-(pentafluorosulfanyl)phenyl)piperidin-1-yl)pyridazin-3-yl)-1,3,4-thiadiazol-2-yl)methanol]

inhibition at 1 µM: 98%
Compound: COC1(c2ccc(S(F)(F)(F)(F)F)cc2)CCN(c2ccc(-c3nnc(CO)o3)nn2)CC1 [Example 93, (5-(6-(4-Methoxy-4-(4-(pentafluorosulfanyl)phenyl)piperidin-1-yl)pyridazin-3-yl)-1,3,4-oxadiazol-2-yl)methanol]

inhibition at 1 µM: 87%
Compound: N#CC1(c2ccc(S(F)(F)(F)(F)F)cc2)CCN(c2ccc(-c3nnc(CO)s3)nn2)CC1 [Example 109, 1-(6-(5-(Hydroxymethyl)-1,3,4-thiadiazol-2-yl)pyridazin-3-yl)-4-(4-(pentafluorosulfanyl)phenyl)piperidine-4-carbonitrile]

Reference: patent US20170015654A1, “PYRIDAZINE COMPOUND” (TAKEDA PHARMACEUTICAL COMPANY LIMITED, priority 2014, published 2017)
